The text below walks through data of patent US20250320245A1, “Nucleoside Analogues for the Treatment of Parasitic Infections” (Universiteit Antwerpen, priority 2021, published 2025).

Some results are limits rather than exact numbers.

Holding throughout (assay type): cell-based
The test system of one data set is T. vivax (ILRAD700). In words: Ex vivo drug susceptibility assay, T. vivax. The note with it: Trypanosoma vivax; Table 1; mean and SEM of two independent experiments; read-out: T. vivax in vitro activity (IC50). The text has this:
T. congolense (IL3000), the isometamidium (ISM)-resistant T. congolense strain (MSORO M7H), T. evansi type A (RoTat 1.2), T. evansi type B (KETRI 2479) and T. equiperdum (BoTat 1.1) used for in vitro, ex vivo and in vivo experiments were kindly provided by the Institute of Tropical Medicine (ITM), and T. vivax (ILRAD700) and T. congolense (TC13) used for ex vivo and in vivo experiments, were kindly provided by the University of Brussel (VUB).
Ex Vivo Drug Susceptibility Assays for T. vivax, T. congolense ISM-Resistant, and T. evansi Type B
For Trypanosoma species/strains that were not adapted to culture conditions, donor mice were infected intraperitoneally with 10^4 parasites. Around day 5-6 post infection, blood was collected via cardiac puncture and parasites were isolated using mini-anion exchange centrifugation technique (mAECT). 4-fold dilutions of the test compounds were prepared with the highest concentration of 64 μM, and parasites were seeded at 1×10^5 parasite/well. Following 24 h of drug exposure at 37° C. and 5% CO2, resazurin was added to the wells and plates were incubated (37° C./5% CO2) for another 24 h. Cell viability was determined by fluorescence reading (Tecan®, GENios), and IC50 values were calculated by non-linear regression (dose-response curve with variable slope) using Prism 8.0 (GraphPad Software Inc., San Diego, CA, USA).

The nature of data set [1]: Cytotoxicity assay on MRC-5 fibroblasts. The note with it: human, MRC-5SV2 embryonic lung fibroblasts; Table 1; mean and SEM of two independent experiments; highest concentration 64 μM; read-out: MRC-5 off-target cytotoxicity (CC50). The procedure:
MRC-5SV2 (Sigma-Aldrich/ECACC, catalogue number 84100401) human embryonic lung fibroblasts were used to perform cytotoxicity assays. The cells were cultured in minimum essential medium (MEM, Life Technologies) with Earle's salt medium, supplemented with L-glutamine, NaHCO3 and 5% inactivated fetal bovine serum (iFBS). Cells were seeded at 1.5×10^4 cells/well and 4-fold compound dilutions were immediately added with a highest in-test concentration of 64 μM. After a 3-day incubation, resazurin (Sigma-Aldrich) was added to each well (final concentration of 10 μg mL^−1), and cell viability was assessed by fluorescent reading (Tecan®, GENios) following 4 h of incubation with resazurin (37° C./5% CO2). The results were expressed as percentage reduction in cell growth/viability compared to control wells and the 50% cytotoxic concentration (CC50) was calculated for each of the compounds.

For another data set, the system named is T. brucei (Squib 427). In words: In vitro drug susceptibility assay, T. brucei. The note with it: Trypanosoma brucei; Table 1; mean and SEM of two independent experiments; read-out: T. brucei in vitro activity (IC50). The procedure:
Drug susceptibility assays with T. brucei (Squib 427), T. evansi type A (RoTat 1.2) and T. equiperdum (BoTat 1.1) were performed under similar conditions. Parasites were cultured in HMI-9 culture medium supplemented with 10% iFBS. To determine in vitro susceptibility of the abovementioned Trypanosoma species, 10 concentrations of a 4-fold dilution series (with a highest in-test concentration of 64 μM) was prepared for each compound, and parasites were seeded at 1.5×10^4 parasite/well. After 72 h of drug exposure at 37° C. with 5% CO2, resazurin was added to the wells (final concentration of 10 μg mL^−1), followed by another incubation for 24 h. Cell viability was determined by fluorescence reading (Tecan®, GENios) and 50% inhibitory concentration (IC50) was calculated for each compound.

Usually IC50 stands for the midpoint of a concentration-inhibition curve. One may read the CC50 as the concentration giving 50% cytotoxicity.

As to `CCC(C)Sc1ncnc2c1ccn2[C@@H]1O[C@H](CO)[C@@H](O)[C@H]1O` (stereo partly drawn) [FH15956, 4-S-sec-butyl-N7-(β-D-ribofuranosyl)pyrrolo[2,3-d]pyrimidine], the figures for the IC50 with T. vivax (ILRAD700) and in the data set on T. brucei (Squib 427) were 1980 ± 940 nM and 360 ± 40 nM, respectively. Besides, the CC50 at 3 day in data set [1] is over 64000 nM.

For the compound `COc1ccc(CSc2ncnc3c2ccn3[C@@H]2O[C@H](CO)[C@@H](O)[C@H]2O)cc1` [FH15960], the IC50 in the data set with T. vivax (ILRAD700) stood at 820 ± 270 nM; with T. brucei (Squib 427), 130 ± 8 nM. Further, the CC50 at 3 day in data set [1] was over 64000 nM.

Turning to `CCSc1ncnc2c1ccn2[C@@H]1O[C@H](CO)[C@@H](O)[C@H]1O` [FH15938, 4-S-ethyl-N7-(β-D-ribofuranosyl)pyrrolo[2,3-d]pyrimidine], the figures for the IC50 with T. vivax (ILRAD700) and in the data set on T. brucei (Squib 427) were 31 ± 9 nM and 250 ± 50 nM, respectively. In addition, the half-maximal cytotoxic concentration (CC50) at 3 day in data set [1] amounted to 28200 ± 2030 nM.

With `OC[C@H]1O[C@@H](n2ccc3c(SCc4ccccc4)ncnc32)[C@H](O)[C@@H]1O` [FH14905], the results for the IC50 with T. vivax (ILRAD700) and in the data set with T. brucei (Squib 427) were 32300 ± 4850 nM and 19 ± 2 nM, respectively. Also, in data set [1], the CC50 at 3 day was over 64000 nM.

As to `CC(C)CCSc1ncnc2c1ccn2[C@@H]1O[C@H](CO)[C@@H](O)[C@H]1O` [FH15954, 4-S-isopentyl-N7-(β-D-ribofuranosyl)pyrrolo[2,3-d]pyrimidine], the IC50 stood at 230 ± 20 nM with T. vivax (ILRAD700) and 30 ± 4 nM in the data set with T. brucei (Squib 427). For the same compound, the CC50 at 3 day in data set [1] is 43200 ± 2630 nM.

Regarding `OC[C@H]1O[C@@H](n2ccc3c(SC4CCCCC4)ncnc32)[C@H](O)[C@@H]1O` [FH15957, 4-S-cyclohexyl-N7-(β-D-ribofuranosyl)pyrrolo[2,3-d]pyrimidine], the IC50 in the data set with T. vivax (ILRAD700) came to 3160 ± 710 nM; in the data set on T. brucei (Squib 427), 190 ± 40 nM. Also, the CC50 at 3 day in data set [1] was found to be 58800 ± 1370 nM.

Turning to `OC[C@H]1O[C@@H](n2ccc3c(SCC4CCCC4)ncnc32)[C@H](O)[C@@H]1O` [FH15939, 4-cylopentylmethylthio-N7-(β-D-ribofuranosyl)pyrrolo[2,3-d]pyrimidine], the values for the concentration for half-maximal inhibition (IC50) with T. vivax (ILRAD700) and in the data set on T. brucei (Squib 427) were 690 ± 250 nM and 32 ± 21 nM, respectively. Moreover, the CC50 at 3 day in data set [1] stood at 32300 ± 1000 nM.

For the compound `CC(C)c1ccc(CSc2ncnc3c2ccn3[C@@H]2O[C@H](CO)[C@@H](O)[C@H]2O)cc1` [FH15941, 4-S-(4-isopropylbenzyl)-N7-(β-D-ribofuranosyl)pyrrolo[2,3-d]pyrimidine], the IC50 turned out to be 2370 ± 1470 nM with T. vivax (ILRAD700) and 440 ± 20 nM in the data set on T. brucei (Squib 427). The CC50 at 3 day in data set [1] was determined as 26900 ± 1380 nM.

Turning to `CCCSc1ncnc2c1ccn2[C@@H]1O[C@H](CO)[C@@H](O)[C@H]1O` [FH15935, 4-S-propyl-N7-(β-D-ribofuranosyl)pyrrolo[2,3-d]pyrimidine], the IC50 in the data set with T. vivax (ILRAD700) was 23 ± 5 nM; in the data set on T. brucei (Squib 427) it was 30 ± 0.9 nM. Further, in data set [1], the CC50 at 3 day was over 64000 nM.

With `CCCCCSc1ncnc2c1ccn2[C@@H]1O[C@H](CO)[C@@H](O)[C@H]1O` [FH15937, 4—S-pentyl-N7-(β-D-ribofuranosyl)pyrrolo[2,3-d]pyridimidine], the IC50 in the data set on T. vivax (ILRAD700) is 2190 ± 610 nM; with T. brucei (Squib 427), 31 ± 1 nM. The CC50 at 3 day in data set [1] came out at 35300 ± 1000 nM.

`CCCCSc1ncnc2c1ccn2[C@@H]1O[C@H](CO)[C@@H](O)[C@H]1O` [FH15936]: the values for the concentration for half-maximal inhibition (IC50) with T. vivax (ILRAD700) and in the data set on T. brucei (Squib 427) were 24 ± 7 nM and 30 ± 0.1 nM, respectively. The 50% cytotoxic concentration (CC50) at 3 day in data set [1] is over 64000 nM.

`OC[C@H]1O[C@@H](n2ccc3c(SCCCc4ccccc4)ncnc32)[C@H](O)[C@@H]1O` [FH15940, 4-(3-phenylpropyl)thio-N7-(β-D-ribofuranosyl)pyrrolo[2,3-d]pyrimidine]: the figures for the IC50 in the data set with T. vivax (ILRAD700) and in the data set on T. brucei (Squib 427) were 8710 ± 1190 nM and 106 ± 4 nM, respectively. For the same compound, the CC50 at 3 day in data set [1] is 24300 ± 940 nM.

On to `CC(C)Sc1ncnc2c1ccn2[C@@H]1O[C@H](CO)[C@@H](O)[C@H]1O` [FH15958], for which the IC50 turned out to be 460 ± 250 nM in the data set on T. vivax (ILRAD700) and 540 ± 40 nM with T. brucei (Squib 427). In addition, the CC50 at 3 day in data set [1] was over 64000 nM.

Turning to `Cc1ccc(CSc2ncnc3c2ccn3[C@@H]2O[C@H](CO)[C@@H](O)[C@H]2O)cc1` [FH15959, 4-S-(4-methylbenzyl)-N7-(β-D-ribofuranosyl)pyrrolo[2,3-d]pyrimidine], the IC50 with T. vivax (ILRAD700) was 18800 ± 650 nM; in the data set on T. brucei (Squib 427), 31 ± 1 nM. The CC50 at 3 day in data set [1] was over 64000 nM.

In the case of `CC(C)CSc1ncnc2c1ccn2[C@@H]1O[C@H](CO)[C@@H](O)[C@H]1O` [FH15955, 4-S-2-methylpropyl-N7-(β-D-ribofuranosyl)pyrrolo[2,3-d]pyrimidine], the half-inhibitory concentration (IC50) worked out at 21 ± 2 nM with T. vivax (ILRAD700) and 32 ± 1 nM in the data set on T. brucei (Squib 427). The CC50 at 3 day in data set [1] is over 64000 nM.

Turning to `OC[C@H]1O[C@@H](n2ccc3c(SCc4ccc(Cl)c(Cl)c4)ncnc32)[C@H](O)[C@@H]1O` [FH15934, 4-S-(3,4-dichlorobenzyl)-N7-(β-D-ribofuranosyl)pyrrolo[2,3-d]pyrimidine], the half-maximal inhibitory concentration (IC50) with T. vivax (ILRAD700) stood at 8870 ± 90 nM; with T. brucei (Squib 427) it was 85 ± 1 nM. Besides, the CC50 at 3 day in data set [1] is 13900 ± 970 nM.

On to `OC[C@H]1O[C@@H](n2ccc3c(SCC4CCCCC4)ncnc32)[C@H](O)[C@@H]1O` [FH15962, 4-S-cyclohexylmethyl-N7-(β-D-ribofuranosyl)pyrrolo[2,3-d]pyrimidine], for which the IC50 was 2860 ± 260 nM with T. vivax (ILRAD700) and 31 ± 10 nM with T. brucei (Squib 427). Moreover, in data set [1], the CC50 at 3 day stood at 19000 nM.

Take `OC[C@H]1O[C@@H](n2ccc3c(SCCc4ccccc4)ncnc32)[C@H](O)[C@@H]1O` [FH15953, 4-S-phenethyl-N7-(β-D-ribofuranosyl)pyrrolo[2,3-d]pyrimidine]: the results for the IC50 in the data set on T. vivax (ILRAD700) and in the data set on T. brucei (Squib 427) were 4930 ± 590 nM and 410 ± 10 nM, respectively. Also, the CC50 at 3 day in data set [1] was determined as 28900 ± 1340 nM.

With `OC[C@H]1O[C@@H](n2ccc3c(SC4CCCC4)ncnc32)[C@H](O)[C@@H]1O` [FH15952, 4—S-cyclopentyl-N7-(β-D-ribofuranosyl)pyrrolo[2,3-d]pyrimidine], the IC50 with T. vivax (ILRAD700) stood at 620 ± 160 nM; in the data set on T. brucei (Squib 427), 91 ± 1 nM. Besides, the 50% cytotoxic concentration (CC50) at 3 day in data set [1] came out at 45500 ± 1870 nM.
